From patent US5096929A, “2-amino-1,2,3,4-tetrahydronaphthalene derivatives with cardiovascular activity, process for their preparation and pharmaceutical compositions containing them” (Chiesi Farmaceutici S.p.A., priority 1989, dated 1992)
Structures can show the parent of a compound that is named as a salt. Where two headings read alike, the source gives them in different places.

System: arterial rat hind quarter
Test: Rat perfused hind quarter; vasodilating action
Details: for Emax: Rattus norvegicus, 100% = complete reduction
Procedure: Rat perfused hind quarter; vasodilating action
The vasodilating effect of CHF 1255 has been evaluated in the arterial rat hind quarter perfused with Krebs-Henseleit solution at constant flow.
The increase of arterial resistance was induced by K^+ -enriched solution (40 mM), norepinephrine (5×10^-6 M) and serotonin (5×10^-7 M).
Papaverine and prazosin, powerful α-blocker vasodilator, were used as reference compounds.
ED40 =dose (moles) decreasing of 40% the contraction induced by the agonist. 100% was considered as the complete recduction of contraction.

Question: Which results are given for `COc1ccc2c(c1OC)CCC(N[C@@H](C)[C@H](O)c1ccc(O)cc1)C2` (relative stereo) [CHF 1255, Erythro-5,6-Dimethoxy-2-[2-(4-hydroxyphenyl)-2-hydroxy-1-mehylethylamino]1,2,3,4-tetrahydronaphthalene hydrochloride]?
Answer: Activity against contraction by the different agents (in words) (K+, norepinephrine, serotonin): particularly active on the norepinephrine induced contraction; Emax (K+ 40 mM, read-out: α (efficacy), K+ induced contraction): 46%; Emax (norepinephrine 5×10^-6 M, read-out: α (efficacy), norepinephrine induced contraction): 94%; Emax (serotonin 5×10^-7 M, read-out: α (efficacy), 5-HT induced contraction): 60%; ED40, K+ induced contraction (dose decreasing contraction by 40%, K+ 40 mM): 1.5e-06 mol; ED40, norepinephrine induced contraction (dose decreasing contraction by 40%, norepinephrine 5×10^-6 M): 1.2e-08 mol; ED40, 5-HT induced contraction (dose decreasing contraction by 40%, serotonin 5×10^-7 M): 6.5e-07 mol
